Data as given in patent US20210268070A1, “Use of Immunomodulators to Control Infection and Stimulate Healing in Normal and Diabetic Wounds” (priority 2018, published 2021).

B1: Chemokine (C-C motif) ligand 3 (protein, listed as Homo sapiens)
chain: MQVSTAALAVLLCTMALCNQFSASLAADTPTACCFSYTSRQIPQNFIADYFETSSQCSKPGVIFLTKRSRQVCADPSEEWVQKYVSDLELSA
notes: class 1 immunomodulator

How the values were obtained:
[1] = tested on: inflammatory cytokines; test: Production of inflammatory cytokines in normal wound; assay type: in vivo, mice
Method: FIGS. 7A and 7B illustrate that CCL3 treatment increases the production of inflammatory cytokines in a normal wound. N=4; Significance determined as compared to PBS *<0.05, **p<0.01, ***p<0.001.
FIGS. 8A and 8B illustrate that LPS and fMLP treatment increases the production of inflammatory cytokines in a normal wound. N=4; LPS (10 ng) and fMLP (100 nM) directly added to wounds at the time of infection after wounding. Significance determined as compared to PBS *<0.05, **p<0.01.
Tissue-Tek O.C.T. (Sakura); Lysing Matrix D (MP Biomedicals); Collagenase (Roche Diagnostics), Hematoxylin and eosin (H&E); DNase 1 (Sigma-Aldrich); Hyluronidase, Streptozotocin (Sigma-Aldrich); Trizol (Invitrogen); CD45 antibody (eBioscience, Inc); Ly6C; Ly6G; CD11b; CD3 (BioLegend); CD68; GAPDH (Sigma-Aldrich). Ly6G and CD68 (Abcam); Primer pairs for GAPDH were from Qiagen. Masson's trichrome stain (Sigma-Aldrich); Picrosirius red (Abcam); Fibronectin (Chemicon International); Insulin slow-release capsules (Linplant; LinShin, Toronto, Canada) CCL3 (R&D Systems) fMLP (Sigma-Aldrich); II-1β ELISA (R&D Systems); TNF-α ELISA (R&D Systems).

[2] = tested on: P. aeruginosa PA103; test: Wound model of infection with PA103 in diabetic db/db mice; assay type: in vivo; details: for infection control against P. aeruginosa in diabetic wounds infected with PA103: 10^6 PA103, topical at time of surgery & infection, 24 h, FIG. 2D
Method: The implant model of infection in C57B mice was used for 10^6 PA103 (FIG. 2A) or 10^6 USA300 MRSA (FIG. 2C). The wound model of infection was used for 10^6 PA103 in C57BL mice (FIG. 2B) or diabetic db/db mice (FIG. 2D). Infection was carried out at the time of surgery by adding bacteria directly to the surgical sites. Immunomodulators, namely, LPS (10 ng or 100 ng), fMLP (10 ng or 100 ng), CCL3 (1 μg) were added topically at the surgical sites at the time of surgery & infection. GM-CSF (10 μg/kg), tobramycin (Tob at 3.5 mg/kg), and vancomycin (40 mg/kg) were added systemically by i.p. injection 1 h before surgical implantation and infection. Infection levels were determined 24 h following infection (N>4 animals/group; NS=not significant, * p<0.01, ** p<0.001, ***p<0.0001 One-way ANOVA).
We assessed these immunomodulators for their ability to control wound and/or implant SS's in normal (C57BL/6) or diabetic (db/db) mice. We acknowledge that diabetic individuals are not as immunocompromised as other immunocompromised patient groups. […] All immunomodulators were added locally at the surgical sites at the time of infection, except GM-CSF (10 μg/kg) which was administered systemically by i.p. injection 1 h prior to surgery per its FDA-approved route of delivery. […] CCL3 and GM-CSF are also tested using the implant model of infection. Here, we tested CCL3 and GM-CSF in the wound model of infection in C57B mice.
Implant surgery and wound surgery and surgical site infection are performed according to the following method. On the day of surgery, all mice are anesthetized by an intraperitoneal injection of a ketamine/xylazine mixture (90 mg/kg ketamine+5 mg/kg xylazine for mice). The back of the animals is shaved using an electric shave and scrubbed with alcohol swabs 3 times, a topical antiseptic solution (Hibiclens; chlorhexidine gluconate) is applied to the skin. The surgical procedures are performed with sterile instruments, sterile surgical gloves, and aseptic techniques as follows. For wound surgical procedure, a sterile biopsy punch (5-7 mm diameter) is used to punch through the full thickness of the back skin below the shoulder blades. Four 5-7 mm skin wounds are made on the back of each mouse. Wounds placed in this area cannot be reached by the animals and therefore are protected from self-licking. For implant surgery, a 4-mm long lateral skin incision is made on the upper back, and the skin is retracted. The space above the muscle is opened using blunt dissection with fine forceps, to create a rostral fascia indentation. Then, immunomodulators at indicated concentrations (in a 20 μL volume) or PBS control are injected into the fascia indentation. After a 1 min wait for fluid to be absorbed, a disc implant, (1.87 mm diameter, 0.68 mm thick (Part # VP 724F-1)), is inserted in the fascia indentation. […] For implant surgery, the fascia indentation is left open, while the skin is closed with 4-0 nylon sutures. The fascia above the back muscles in mice is too thin and fragile to allow it to be sutured closed around the implant.

[3] = tested on: leukocytes; test: Leukocyte migration (H&E staining) and activation (MPO ELISA) in normal wound; assay type: in vivo, C57B mice; details: for leukocyte migration and neutrophil activation in a normal wound: compared to PBS, FIGS. 10A-10D
Text: FIGS. 10A-10D illustrate that immunomodulatory treatment enhances leukocyte migration and neutrophil activation in a normal wound. (10A, 10B—CCL3, 10C—LPS, fMLF, 10D—GM-CSF), N=4; Significance determined as compared to PBS *<0.05, **p<0.01, ***p<0.001.
We next examined the impact of CCL3 topical treatment on leukocyte migration by H&E staining, and on leukocyte activation by myeloperoxidase (MPO) measurements by ELISA. (MPO is primarily used as a marker for neutrophil activation but it can also be expressed to lesser extent in macrophages).

[4] = LPS (10 ng) and fMLP (100 nM) directly added to wounds at the time of infection after wounding, FIGS. 8A and 8B
[5] = topical CCL3 to C57B wounds, regardless of infection, FIG. 10A, 10B

Molecule | production of inflammatory cytokines in a normal wound [1, 4] | infection control against P. aeruginosa in diabetic wounds infected with PA103 ([2]; db/db mice) | leukocyte migration and neutrophil activation in a normal wound [3] | antimicrobial defenses in diabetic wounds against P. aeruginosa ([2]; compared to PBS, FIG. 13A) | production of inflammatory cytokines in a normal wound ([1]; CCL3 treatment, compared to PBS, FIGS. 7A and 7B) | infection control in diabetic wounds ([2]; P. aeruginosa PA103 10^3, compared to PBS, FIG. 11A) | infection control in diabetic animals, compared with LPS or fMLP ([2]; db/db mice, PA103, FIG. 2D) | leukocytes' activation in the wound (myeloperoxidase, MPO, by ELISA) [3, 5] | leukocytes' migration in the wound (H&E staining) [3, 5]
CSCC[C@H](NC=O)C(=O)N[C@@H](CC(C)C)C(=O)N[C@@H](Cc1ccccc1)C(=O)O [fMLP, N-Formylmethionyl-leucyl-phenylalanine] | increases | significantly improved | enhances |  |  |  |  |  | 
lipopolysaccharide [LPS] | increases | significantly improved | enhances | increases |  |  |  |  | 
B1 |  | significantly improved | enhances |  | increases | increases | significantly more effective | significant increases | significant increases
